The values that follow come from ChEMBL document CHEMBL5291721, “A preclinical secondary pharmacology resource illuminates target-adverse drug reaction associations of marketed drugs” (Nat Commun, 2023).

*1 amine or outer side, *2 acyl side, *3 side chain or, on linkers, in order; H or OH if unused. Where a SMILES comes first, the peptide text is derived from it. Bridges are numbered along the chain shown (N, C = ends). [ ]: non-standard residue; d: D form. The star is where a group is joined. hTyr(3S-OH,4S-OH,3'-OSO3H) = N[C@H](C(=O)O)[C@H](O)[C@@H](O)c1ccc(O)c(OS(=O)(=O)O)c1; Orn(4R-OH,5R-OH) = O=C([C@H](C[C@@H](O)[C@@H](O)N[*:3])N[*:1])[*:2]; Pro(3S-OH,4S-Me) = C[C@H]1CN[C@H](C(=O)O)[C@H]1O; X1 = CCCCCOc1ccc(-c2cc(-c3ccc(C(=O)*)cc3)no2)cc1; Gln(3R-OH) = NC(=O)C[C@@H](O)[C@H](N)C(=O)O; Hyp = O=C(O)[C@@H]1C[C@@H](O)CN1

The target in assay [1] is T1, Alpha-2A adrenergic receptor (Homo sapiens, UniProt P08913).
T1 sequence (P08913 whole entry): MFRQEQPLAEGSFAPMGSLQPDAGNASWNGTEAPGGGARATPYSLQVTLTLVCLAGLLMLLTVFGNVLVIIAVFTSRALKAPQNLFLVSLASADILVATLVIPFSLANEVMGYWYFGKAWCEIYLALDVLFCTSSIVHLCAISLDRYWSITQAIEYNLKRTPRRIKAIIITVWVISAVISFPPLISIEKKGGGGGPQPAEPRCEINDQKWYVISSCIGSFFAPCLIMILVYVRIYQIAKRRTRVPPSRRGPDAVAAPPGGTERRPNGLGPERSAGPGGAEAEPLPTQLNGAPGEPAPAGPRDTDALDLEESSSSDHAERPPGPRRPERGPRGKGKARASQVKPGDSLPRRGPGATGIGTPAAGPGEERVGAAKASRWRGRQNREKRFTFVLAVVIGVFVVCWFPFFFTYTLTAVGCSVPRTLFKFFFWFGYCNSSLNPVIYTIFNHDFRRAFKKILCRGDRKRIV

Another assay deals with Prothrombin (Homo sapiens, UniProt P00734). It is filed as functional.
For the next assay, the target named is Motilin receptor (Homo sapiens, UniProt O43193).
Sequence of Motilin receptor (O43193 whole entry): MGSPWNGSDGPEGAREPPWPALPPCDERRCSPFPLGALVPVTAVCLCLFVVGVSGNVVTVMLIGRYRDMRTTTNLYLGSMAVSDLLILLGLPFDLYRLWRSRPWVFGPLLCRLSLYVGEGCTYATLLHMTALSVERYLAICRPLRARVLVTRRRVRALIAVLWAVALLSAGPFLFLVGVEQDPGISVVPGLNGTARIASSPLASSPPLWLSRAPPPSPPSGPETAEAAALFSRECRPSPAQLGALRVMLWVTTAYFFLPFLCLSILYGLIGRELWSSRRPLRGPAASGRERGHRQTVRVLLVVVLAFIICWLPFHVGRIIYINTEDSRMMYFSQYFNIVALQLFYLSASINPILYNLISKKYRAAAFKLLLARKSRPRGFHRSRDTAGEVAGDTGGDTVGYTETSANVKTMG
The target in another assay is T2, Progesterone receptor (Homo sapiens, UniProt P06401).
T2 sequence (P06401 whole entry): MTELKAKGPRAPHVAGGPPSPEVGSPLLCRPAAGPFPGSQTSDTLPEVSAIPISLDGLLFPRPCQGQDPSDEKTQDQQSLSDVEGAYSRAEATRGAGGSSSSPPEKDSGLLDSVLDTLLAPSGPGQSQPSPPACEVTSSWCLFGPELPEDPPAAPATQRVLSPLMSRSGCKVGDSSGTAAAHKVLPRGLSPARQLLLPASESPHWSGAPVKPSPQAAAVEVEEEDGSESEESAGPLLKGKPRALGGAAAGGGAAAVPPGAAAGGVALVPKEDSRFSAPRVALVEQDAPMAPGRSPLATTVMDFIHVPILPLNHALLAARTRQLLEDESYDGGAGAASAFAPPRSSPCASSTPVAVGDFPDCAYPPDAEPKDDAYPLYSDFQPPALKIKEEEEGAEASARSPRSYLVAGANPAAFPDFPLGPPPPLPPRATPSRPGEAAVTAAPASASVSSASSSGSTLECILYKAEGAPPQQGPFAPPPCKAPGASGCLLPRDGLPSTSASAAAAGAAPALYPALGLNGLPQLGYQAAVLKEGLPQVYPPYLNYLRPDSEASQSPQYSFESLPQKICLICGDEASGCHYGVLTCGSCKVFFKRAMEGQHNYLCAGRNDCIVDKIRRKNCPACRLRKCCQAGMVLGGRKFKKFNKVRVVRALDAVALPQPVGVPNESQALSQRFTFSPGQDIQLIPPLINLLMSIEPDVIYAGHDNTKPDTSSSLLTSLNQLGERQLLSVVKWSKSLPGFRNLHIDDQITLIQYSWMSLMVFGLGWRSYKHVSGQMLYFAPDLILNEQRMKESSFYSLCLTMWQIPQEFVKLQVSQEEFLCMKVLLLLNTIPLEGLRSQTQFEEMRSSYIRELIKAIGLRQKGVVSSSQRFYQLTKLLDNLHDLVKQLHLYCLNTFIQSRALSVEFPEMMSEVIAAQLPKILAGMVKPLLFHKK
The class given is functional.

For the next assay, the target named is D(3) dopamine receptor (Homo sapiens, UniProt P35462).
Sequence of D(3) dopamine receptor (P35462 whole entry): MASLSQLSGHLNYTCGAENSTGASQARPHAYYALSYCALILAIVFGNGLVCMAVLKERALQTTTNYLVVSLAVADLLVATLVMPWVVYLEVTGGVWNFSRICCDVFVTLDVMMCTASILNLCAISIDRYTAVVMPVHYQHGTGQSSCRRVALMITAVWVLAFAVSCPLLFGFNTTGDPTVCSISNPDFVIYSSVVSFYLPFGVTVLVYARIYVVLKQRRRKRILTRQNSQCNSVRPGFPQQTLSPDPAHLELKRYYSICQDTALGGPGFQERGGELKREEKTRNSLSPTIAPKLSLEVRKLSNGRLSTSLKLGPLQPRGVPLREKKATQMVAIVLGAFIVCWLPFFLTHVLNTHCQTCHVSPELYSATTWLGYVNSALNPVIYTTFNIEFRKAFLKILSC
The target in assay [2] is 3',5'-cyclic-AMP phosphodiesterase 4D (Homo sapiens, UniProt Q08499). The class given is functional.
Sequence of 3',5'-cyclic-AMP phosphodiesterase 4D (Q08499 whole entry): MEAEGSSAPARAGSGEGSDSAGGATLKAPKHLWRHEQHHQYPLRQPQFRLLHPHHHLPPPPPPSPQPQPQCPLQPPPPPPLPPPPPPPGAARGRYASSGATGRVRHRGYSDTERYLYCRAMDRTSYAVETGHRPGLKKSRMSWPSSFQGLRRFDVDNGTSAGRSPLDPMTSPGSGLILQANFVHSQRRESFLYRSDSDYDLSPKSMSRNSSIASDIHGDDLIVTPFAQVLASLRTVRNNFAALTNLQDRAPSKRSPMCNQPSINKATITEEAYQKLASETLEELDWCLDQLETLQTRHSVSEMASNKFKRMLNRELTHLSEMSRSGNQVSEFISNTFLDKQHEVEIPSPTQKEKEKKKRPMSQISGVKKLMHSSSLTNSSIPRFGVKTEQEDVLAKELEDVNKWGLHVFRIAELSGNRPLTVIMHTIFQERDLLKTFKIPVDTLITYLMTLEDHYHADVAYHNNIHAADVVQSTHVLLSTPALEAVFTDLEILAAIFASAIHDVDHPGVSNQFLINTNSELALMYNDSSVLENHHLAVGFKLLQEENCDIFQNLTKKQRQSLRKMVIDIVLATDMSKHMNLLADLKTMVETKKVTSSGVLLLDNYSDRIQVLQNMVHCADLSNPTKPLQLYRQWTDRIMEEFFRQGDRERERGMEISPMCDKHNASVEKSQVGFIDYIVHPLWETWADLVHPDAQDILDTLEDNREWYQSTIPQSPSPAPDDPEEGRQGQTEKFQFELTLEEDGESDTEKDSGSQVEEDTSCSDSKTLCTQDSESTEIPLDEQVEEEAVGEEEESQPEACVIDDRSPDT
A further assay has as its target Histamine H2 receptor (Homo sapiens, UniProt P25021). The class given is functional, cell-based.
Assay [3] deals with T3, 5-hydroxytryptamine receptor 1A (Homo sapiens, UniProt P08908).
T3 sequence (P08908 whole entry): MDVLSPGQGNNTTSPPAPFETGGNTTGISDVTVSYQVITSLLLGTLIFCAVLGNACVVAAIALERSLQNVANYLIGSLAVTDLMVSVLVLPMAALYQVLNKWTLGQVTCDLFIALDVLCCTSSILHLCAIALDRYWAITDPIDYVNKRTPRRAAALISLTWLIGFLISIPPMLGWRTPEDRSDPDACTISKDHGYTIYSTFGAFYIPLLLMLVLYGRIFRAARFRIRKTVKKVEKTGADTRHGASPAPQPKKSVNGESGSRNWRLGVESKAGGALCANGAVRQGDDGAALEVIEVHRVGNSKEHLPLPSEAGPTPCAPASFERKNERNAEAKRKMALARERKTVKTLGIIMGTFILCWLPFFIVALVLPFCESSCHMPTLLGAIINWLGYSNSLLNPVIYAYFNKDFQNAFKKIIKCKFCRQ
The class given is functional, cell-based.

The target of assay [4] is T4, Muscarinic acetylcholine receptor M2 (Homo sapiens, UniProt P08172).
T4 sequence (P08172 whole entry): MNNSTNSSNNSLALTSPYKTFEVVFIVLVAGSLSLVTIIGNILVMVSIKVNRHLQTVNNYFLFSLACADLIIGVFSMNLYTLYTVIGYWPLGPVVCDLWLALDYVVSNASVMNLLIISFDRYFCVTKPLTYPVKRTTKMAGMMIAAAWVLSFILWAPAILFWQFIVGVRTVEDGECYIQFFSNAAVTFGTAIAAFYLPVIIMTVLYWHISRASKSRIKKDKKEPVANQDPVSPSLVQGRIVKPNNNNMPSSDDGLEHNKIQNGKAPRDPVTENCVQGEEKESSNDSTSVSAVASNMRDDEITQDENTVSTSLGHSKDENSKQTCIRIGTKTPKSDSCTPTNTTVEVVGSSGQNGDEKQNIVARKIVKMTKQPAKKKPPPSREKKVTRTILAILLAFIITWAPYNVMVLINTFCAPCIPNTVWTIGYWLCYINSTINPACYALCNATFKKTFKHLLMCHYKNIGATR
The class given is functional, cell-based.

By AC50 is commonly meant the concentration at which the activity in the assay is half-maximal. Low values mean activity at low concentration, high ones activity only at high concentration.
Note: assay procedure not described here.

Sequence of Histamine H2 receptor (P25021 whole entry): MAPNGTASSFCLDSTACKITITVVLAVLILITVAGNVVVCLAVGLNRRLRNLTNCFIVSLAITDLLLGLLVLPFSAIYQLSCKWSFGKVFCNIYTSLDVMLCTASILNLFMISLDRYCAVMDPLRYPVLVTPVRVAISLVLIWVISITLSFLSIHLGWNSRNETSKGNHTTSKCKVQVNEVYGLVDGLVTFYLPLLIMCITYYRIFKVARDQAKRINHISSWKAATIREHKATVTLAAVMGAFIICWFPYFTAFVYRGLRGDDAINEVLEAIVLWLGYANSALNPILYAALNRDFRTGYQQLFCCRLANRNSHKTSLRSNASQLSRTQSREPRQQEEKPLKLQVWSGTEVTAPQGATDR

`CN1CCC[C@@H]1Cc1c[nH]c2ccc(CCS(=O)(=O)c3ccccc3)cc12`: the values for the AC50 (in [1]; on Prothrombin) were 7.51 µM and greater than 30 µM, respectively.
`O=C(Nc1cccc2c(=O)cc(-c3nnn[nH]3)oc12)c1ccc(OCCCCc2ccccc2)cc1`: the AC50 (in assay [1]; on Prothrombin) was greater than 30 µM throughout.
For `NC(=O)c1nc(F)c[nH]c1=O`, the AC50 in assay [1] is greater than 30 µM; on Prothrombin, greater than 10 µM.
Regarding `CNCC[C@@H](Oc1ccccc1C)c1ccccc1` [ATOMOXETINE], the AC50 was greater than 30 µM on Motilin receptor; greater than 30 µM at Progesterone receptor; 26 µM on D(3) dopamine receptor; greater than 30 µM in assay [2]; greater than 30 µM on Histamine H2 receptor.
For the molecule `Cc1ccc([C@@H]2O[C@H](CO)[C@@H](O)[C@H](O)[C@H]2O)cc1Cc1ccc(-c2ccc(F)cc2)s1` [CANAGLIFLOZIN ANHYDROUS], the AC50 (in assay [1]; at Prothrombin) was greater than 30 µM each time.
In the case of `CO/N=C(\C(=O)N[C@@H]1C(=O)N2C(C(=O)O)=C(COC(N)=O)CS[C@H]12)c1ccco1` [CEFUROXIME], the concentration at half-maximal activity (AC50) (in [3]; on Motilin receptor; at D(3) dopamine receptor; in assay [2]; at Histamine H2 receptor; in assay [4]) was greater than 30 µM throughout.
Regarding `CN(C)CCN(Cc1ccc(Cl)cc1)c1ccccn1` [CHLOROPYRAMINE], the AC50 was 12.2 µM in [1] and greater than 30 µM at Prothrombin.
The matching figures for `O=C(O)c1cc(=O)c2ccccc2o1` [CHROMOCARB]: greater than 30 µM and greater than 30 µM.
On to `N[C@@H](CSSC[C@H](N)C(=O)O)C(=O)O` [CYSTINE], for which the AC50 (in [1]; on Prothrombin) was greater than 30 µM throughout.
For `C[C@]12CC[C@@H]3c4ccc(O)cc4CC[C@H]3[C@@H]1CC[C@@H]2OC(=O)CCC1CCCC1` [ESTRADIOL CYPIONATE], the AC50 (in [1]; at Prothrombin) was greater than 30 µM in each case.
Turning to `CC1(C)O[C@@H]2C[C@H]3[C@@H]4CCC5=CC(=O)CC[C@]5(C)[C@@]4(F)[C@@H](O)C[C@]3(C)[C@]2(C(=O)CCl)O1` [HALCINONIDE], the AC50 (in assay [1]; at Prothrombin) was greater than 30 µM in each case.
On to `C[C@]12CCC(=O)C=C1CC[C@@H]1[C@@H]2[C@@H](O)C[C@@]2(C)[C@H]1CC[C@]2(O)C(=O)COC(=O)CCC(=O)O` [HYDROCORTISONE HEMISUCCINATE ANHYDROUS], for which the AC50 (in assay [1]; at Prothrombin) was greater than 30 µM in each case.
For `N=C(N)NCc1cccc([123I])c1` [IOBENGUANE I 123], the AC50 was 0.488 µM in assay [1] and greater than 30 µM at Prothrombin.
For the molecule `CC(C)(N)C(=O)N[C@H](Cc1c[nH]c2ccccc12)C(=O)N[C@H](Cc1c[nH]c2ccccc12)NC=O` [MACIMORELIN], the AC50 (in assay [1]; at Prothrombin) was greater than 30 µM throughout.
Take `C=C1c2c(Cl)ccc(O)c2C(=O)C2=C(O)[C@]3(O)C(=O)C(C(N)=O)=C(O)[C@@H](N(C)C)[C@@H]3[C@@H](O)[C@H]12` [MECLOCYCLINE]: the AC50 (in assay [1]; on Prothrombin) was greater than 30 µM throughout.
On to `CC[C@@H](CO)NC(=O)[C@@H]1C=C2c3cccc4[nH]cc(c34)C[C@H]2N(C)C1` [METHYLERGONOVINE], for which the AC50 on Motilin receptor is greater than 30 µM; at D(3) dopamine receptor, 0.29 µM; in [2] it was greater than 30 µM; at Histamine H2 receptor, 0.058 µM; in [4], greater than 30 µM.
With `CCCCCOc1ccc(-c2cc(-c3ccc(C(=O)N[C@H]4C[C@@H](O)[C@@H](O)NC(=O)[C@@H]5[C@@H](O)[C@@H](C)CN5C(=O)[C@H]([C@H](O)CC(N)=O)NC(=O)[C@H]([C@H](O)[C@@H](O)c5ccc(O)c(OS(=O)(=O)O)c5)NC(=O)[C@@H]5C[C@@H](O)CN5C(=O)[C@H]([C@@H](C)O)NC4=O)cc3)no2)cc1` [MICAFUNGIN] (X1-[Orn(4R-OH,5R-OH)]T[Hyp][hTyr(3S-OH,4S-OH,3'-OSO3H)][Gln(3R-OH)][Pro(3S-OH,4S-Me)]; lactam 1-C), the AC50 (in [1]; at Prothrombin) was greater than 30 µM throughout.
As to `C#C[C@]1(O)CC[C@H]2[C@@H]3CCC4=C(CCC(=O)C4)[C@H]3CC[C@@]21C` [NORETHYNODREL], the concentration at half-maximal activity (AC50) (in assay [1]; at Prothrombin) was greater than 30 µM in each case.
Turning to `CN(C)c1cc(CNCC(C)(C)C)c(O)c2c1C[C@H]1C[C@H]3[C@H](N(C)C)C(O)=C(C(N)=O)C(=O)[C@@]3(O)C(O)=C1C2=O` [OMADACYCLINE], the AC50 in assay [1] was greater than 30 µM; on Motilin receptor it was greater than 30 µM; on Progesterone receptor it was greater than 30 µM; at Prothrombin, greater than 30 µM; at D(3) dopamine receptor, 27 µM; in assay [2], greater than 30 µM. The concentration at half-maximal activity (AC50) (on Histamine H2 receptor; in assay [4]) was greater than 30 µM throughout.
For `COc1ccc(Cc2nccc3cc(OC)c(OC)cc23)cc1OC` [PAPAVERINE], the AC50 (on Motilin receptor; on Progesterone receptor; at D(3) dopamine receptor; on Histamine H2 receptor; in assay [4]) was greater than 30 µM in each case.
As for `CC(C)COc1ccc(CNC(=O)N(Cc2ccc(F)cc2)C2CCN(C)CC2)cc1` [PIMAVANSERIN], the AC50 (in assay [1]; on Prothrombin) was greater than 30 µM each time.
Take `CNC(=O)c1cc(Oc2ccc(NC(=O)Nc3ccc(Cl)c(C(F)(F)F)c3)c(F)c2)ccn1` [REGORAFENIB]: the AC50 in assay [1] is greater than 10 µM; at Progesterone receptor, greater than 30 µM; on Prothrombin, greater than 30 µM; at D(3) dopamine receptor, greater than 30 µM; in [2], greater than 30 µM; in assay [4], greater than 30 µM.
`O=C(Nc1c(Cl)cncc1Cl)c1ccc(OC(F)F)c(OCC2CC2)c1` [ROFLUMILAST]: the AC50 (at Motilin receptor; at D(3) dopamine receptor; on Histamine H2 receptor; in assay [4]) was greater than 30 µM throughout.
Consider `CN1CCN(CCCN2c3ccccc3Sc3ccc(S(=O)(=O)N(C)C)cc32)CC1` [THIOPROPERAZINE], for which the AC50 is 1.42 µM in assay [1]; greater than 30 µM on Prothrombin; 0.031 µM at D(3) dopamine receptor; 13 µM in [2]; greater than 30 µM at Histamine H2 receptor; greater than 30 µM in assay [4].
Regarding `NCCc1ccc(O)cc1` [TYRAMINE], the AC50 was 22 µM in assay [1] and greater than 30 µM on Prothrombin.
